Here are results for four compounds from patent US8329645B2, “Polymyxin derivatives and uses thereof” (priority 2008, dated 2012).

Test [1] has as its system Acinetobacter baumannii ATCC 19606. Description: Growth inhibition around wells on LB agar plates. The format is cell-based. The following applies: A. baumannii ATCC 19606.
Test [2] concerns Pseudomonas aeruginosa ATCC 27853. In words: Growth inhibition around wells on LB agar plates. The format is cell-based. To be noted: Ps. aeruginosa ATCC 27853. In a few lines: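 Activity against Pseudomonas aeruginosa ATCC 27853 was assessed by agar well diffusion on LB plates. A suspension of about 10^8 cells/ml in 0.9% NaCl was spread over the agar and the excess removed. Once the surface had dried, 2 mm wells were drilled and filled with peptide dissolved in 0.9% NaCl. Plates were incubated 18 h at 37° C, and inhibition zone diameters were converted to areas in square mm.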

The test system of a further test is A. baumannii ATCC 19606. Description: Sensitization to rifampin: growth inhibition around wells on LB plates containing rifampin. Format: cell-based, Acinetobacter baumannii. The following applies: 4 μg.
Test [3] has as its system Ps. aeruginosa ATCC 27853. The description is as above. The following applies: 4 μg. Format: cell-based, Pseudomonas aeruginosa.
The target in test [4] is brush-border membrane (BBM) from the renal cortex. Description: Inhibition of binding of radiolabelled gentamycin to brush-border membrane vesicles. To be noted: rat renal cortex BBM vesicles; 20 μM [3H] gentamycin; 60 min at 4° C. From the text:
The binding of the compounds according to this invention to isolated brush-border membrane (BBM) from the renal cortex can be measured indirectly by measuring their ability to inhibit the binding of radiolabelled gentamycin to BBM. Accordingly, the compounds according to this invention that have less affinity to BBM than for example polymyxin B inhibit the binding of radiolabelled gentamycin to a lesser degree than does polymyxin B.
BBM was isolated from the renal cortex of male albino rats by using the Mg^2+/EGTA precipitation technique as described by Nagai et al. (2006). The binding of gentamycin was measured, according to the method described by Nagai et al. (2006) by incubating BBM vesicles (20 μl) in 10 mM HEPES (pH 7.5) with 300 mM mannitol in the presence of 20 μM [^3H] gentamycin (American Radiolabeled Chemicals, Inc. (St. Louis, Mo., U.S.A.) with or without the compound to be tested or a positive control. After an incubation of 60 min at 4° C., 1 ml of ice-cold buffer described above was added, and the mixture was filtered through a Millipore filter (0.45 μm; HAWP). The filter was washed with the buffer and the radioactivity remaining in the filter was measured by using a liquid scintillation counter. The IC50 values were determined as in Nagai et al. (2006) using the Hill equation.

For another test, the system named is A. baumannii F264. The protocol: (§1) Polymyxin B sulfate (Sigma-Aldrich, St. Louis, Mo., USA) was used as a control. […] The bacterial test strains originated from ATCC (10 strains), CCUG (11 strains), and NCTC (3 strains). Fourteen (14) strains (the F-strains) were purchased from Mobidiag Ltd., Helsinki, Finland.
(§2) The inocula were prepared by adjusting the bacterial suspensions to a density equivalent to OD546 nm˜0.3 (˜10^8 CFU/ml˜0.5 McFarland) the yeast suspension to a density equivalent to OD546 nm˜0.75 (˜2×10^7 CFU/ml)._The suspensions were diluted to 10^7 CFU/ml. The plates were inoculated by using a Denley Multipoint Inoculator, 1 μl per spot corresponding to approx. 10^4 CFU/spot. Plates were incubated for 16-20 hours at 35° C.

In a further test the test system is C. freundii ATCC 8090. How it is done:
as §1, §2

The next test has as its system E. cloacae F232. How it is done:
as §1, §2

Another test concerns E. coli ATCC 25922. The protocol:
as §1, §2

The subject of the next test is E. coli CCUG 41432. How it is done:
as §1, §2

A further test relates to E. coli NCTC 13353. The protocol: as §1, §2
The next test concerns K. oxytoca CCUG 51683. How it is done: as §1, §2
Test [5] has as its system S. maltophilia ATCC 17444. How it is done:
as §1, §2

Another test relates to E. coli NCTC 13351. The protocol: as §1, §2
Another test relates to K. pneumoniae ATCC 13883. How it is done:
as §1, §2

A further test deals with K. pneumoniae F144. The protocol: as §1, §2

In brackets after ≈: the same amount, converted by molar mass. Read-outs that look alike come from different tables or passages of the source. Where a SMILES comes first, the peptide text is derived from it. Bridges are numbered along the chain shown (N, C = ends). [ ]: non-standard residue; d: D form. The star is where a group is joined. Decanoyl = CCCCCCCCCC(=O)*; Octanoyl = CCCCCCCC(=O)*; Dab = NCC[C@H](N)C(=O)O; Abu = CC[C@H](N)C(=O)O

With `CCCCCCCC(=O)N[C@H](C(=O)N[C@H](CO)C(=O)N[C@H]1CCNC(=O)[C@H]([C@@H](C)O)NC(=O)[C@H](CCN)NC(=O)[C@H](CCN)NC(=O)[C@H](CC(C)C)NC(=O)[C@@H](Cc2ccccc2)NC(=O)[C@H](CCN)NC1=O)[C@@H](C)O` [NAB 739, OA-Thr-DSer-cy[Dab-Dab-DPhe-Leu-Dab-Dab-Thr-]] (Octanoyl-T[dS][Dab][Dab][dF]L[Dab][Dab]T; lactam 3-C), the “growth inhibition around a well” value is on record as 113 square millimeters in [1] (4 μg), 177 square millimeters in [1] (10 μg), 38 square millimeters in [2] (4 μg) and 79 square millimeters in test [2] (10 μg). Also, the “growth inhibition around a well in the presence of rifampin” value in the test on A. baumannii ATCC 19606 (rifampin 0 μg/ml) is given as 113 square millimeters; in the test with A. baumannii ATCC 19606 (rifampin 0.1 μg/ml), 177 square millimeters; with A. baumannii ATCC 19606 (rifampin 0.3 μg/ml) it was 314 square millimeters; in test [3] (rifampin 0 μg/ml), 38 square millimeters; in [3] (rifampin 0.3 μg/ml), 64 square millimeters. The compound also returned an IC50 in test [4] of 264 ± 91 µM. Further, the MIC stood at 4 µg/mL (≈ 3.72 µM) with A. baumannii F264 (F264); 2 µg/mL (≈ 1.86 µM) against C. freundii ATCC 8090 (ATCC 8090); 2 µg/mL (≈ 1.86 µM) in the test on E. cloacae F232 (F232); 1 µg/mL (≈ 0.929 µM) against E. coli ATCC 25922 (ATCC 25922); 1 µg/mL (≈ 0.929 µM) with E. coli CCUG 41432 (CCUG 41432); 1 µg/mL (≈ 0.929 µM) in the test on E. coli NCTC 13353 (NCTC 13353). In addition, the MIC worked out at 2 µg/mL (≈ 1.86 µM) in the test with K. oxytoca CCUG 51683 (CCUG 51683) and 16 µg/mL (≈ 14.9 µM) in test [5] (ATCC 17444).
Take Polymyxin B [reference compound]: the “growth inhibition around a well” value in test [2] (10 μg) was 133 square millimeters. In addition, the IC50 in [4] is 39.3 ± 5.5 µM. Also, the MIC with A. baumannii F264 (A. baumannii F264) is 0.5 µg/mL; in the test on C. freundii ATCC 8090 (C. freundii ATCC8090), 1 µg/mL; against E. cloacae F232 (E. cloacae F232) it was 0.5 µg/mL; in the test on E. coli ATCC 25922 (E. coli ATCC25922) it was 1 µg/mL; in the test with E. coli CCUG 41432 (E. coli CCUG41432) it was 1 µg/mL; in the test on E. coli NCTC 13351 (E. coli NCTC13351) it was 0.5 µg/mL. Also, the MIC is 1 µg/mL against E. coli NCTC 13353 (E. coli NCTC13353); 0.5 µg/mL in the test on K. oxytoca CCUG 51683 (K. oxytoca CCUG51683); 32(−8) μg/ml against K. pneumoniae ATCC 13883 (K. pneumoniae ATCC13883); 1 µg/mL with K. pneumoniae F144 (K. pneumoniae F144); 1 µg/mL in test [5] (S. maltophilia ATCC17444).
Turning to `CCCCCCCC(=O)N[C@H](C(=O)N[C@@H](CC)C(=O)N[C@H]1CCNC(=O)[C@H]([C@@H](C)O)NC(=O)[C@H](CCN)NC(=O)[C@H](CCN)NC(=O)[C@H](CC(C)C)NC(=O)[C@@H](Cc2ccccc2)NC(=O)[C@H](CCN)NC1=O)[C@@H](C)O` [NAB 7061, OA-Thr-Abu-cy[Dab-Dab-DPhe-Leu-Dab-Dab-Thr-]] (Octanoyl-T[Abu][Dab][Dab][dF]L[Dab][Dab]T; lactam 3-C), the “growth inhibition around a well” value in test [1] (4 μg), in [1] (10 μg), in [2] (4 μg) and in [2] (10 μg) was 0 square millimeters each time. Also, the “growth inhibition around a well in the presence of rifampin” value is 0 square millimeters in the test with A. baumannii ATCC 19606 (rifampin 0 μg/ml); 50 square millimeters in the test on A. baumannii ATCC 19606 (rifampin 0.3 μg/ml); 0 square millimeters in [3] (rifampin 0 μg/ml); 0 square millimeters in test [3] (rifampin 0.1 μg/ml); 0 square millimeters in test [3] (rifampin 0.3 μg/ml). Also, the MIC against A. baumannii F264 (F264) is over 32 µg/mL; against C. freundii ATCC 8090 (ATCC 8090) it was 16 µg/mL (≈ 14.9 µM); against E. cloacae F232 (F232) it was over 32 µg/mL; in the test on E. coli ATCC 25922 (ATCC 25922), over 32 µg/mL; in the test on E. coli CCUG 41432 (CCUG 41432), over 32 µg/mL; against E. coli NCTC 13351 (NCTC 13351) it was over 32 µg/mL. Also, the MIC against E. coli NCTC 13353 (NCTC 13353) was over 32 µg/mL; with K. oxytoca CCUG 51683 (CCUG 51683) it was 32 µg/mL (≈ 29.8 µM); in the test on K. pneumoniae ATCC 13883 (ATCC 13883), over 32 µg/mL; in the test on K. pneumoniae F144 (F144), over 32 µg/mL; in [5] (ATCC 17444), over 32 µg/mL.
`CCCCCCCCCC(=O)N[C@H](C(=O)N[C@H](CO)C(=O)N[C@H]1CCNC(=O)[C@H]([C@@H](C)O)NC(=O)[C@H](CCN)NC(=O)[C@H](CCN)NC(=O)[C@H](CC(C)C)NC(=O)[C@@H](Cc2ccccc2)NC(=O)[C@H](CCN)NC1=O)[C@@H](C)O` [NAB 740, DA-Thr-DSer-cy[Dab-Dab-DPhe-Leu-Dab-Dab-Thr-]] (Decanoyl-T[dS][Dab][Dab][dF]L[Dab][Dab]T; lactam 3-C): the “growth inhibition around a well” value in test [1] (4 μg) was determined as 133 square millimeters; in test [1] (10 μg) it was 201 square millimeters; in test [2] (4 μg) it was 64 square millimeters; in test [2] (10 μg) it was 133 square millimeters. In addition, the “growth inhibition around a well in the presence of rifampin” value with A. baumannii ATCC 19606 (rifampin 0 μg/ml) is given as 133 square millimeters; with A. baumannii ATCC 19606 (rifampin 0.3 μg/ml), 154 square millimeters; in [3] (rifampin 0 μg/ml), 64 square millimeters; in [3] (rifampin 0.1 μg/ml), 64 square millimeters; in test [3] (rifampin 0.3 μg/ml), 64 square millimeters. The IC50 in test [4] is 198 ± 49 µM. Further, the MIC in the test with A. baumannii F264 (F264) amounted to 2 µg/mL (≈ 1.81 µM); with C. freundii ATCC 8090 (ATCC 8090) it was 2 µg/mL (≈ 1.81 µM); in the test on E. cloacae F232 (F232), 2 µg/mL (≈ 1.81 µM); against E. coli ATCC 25922 (ATCC 25922), 2 µg/mL (≈ 1.81 µM); in the test on E. coli CCUG 41432 (CCUG 41432) it was 2 µg/mL (≈ 1.81 µM); with E. coli NCTC 13351 (NCTC 13351), 1 µg/mL (≈ 0.906 µM). The MIC with E. coli NCTC 13353 (NCTC 13353) is 2 µg/mL (≈ 1.81 µM); against K. oxytoca CCUG 51683 (CCUG 51683) it was 2 µg/mL (≈ 1.81 µM); against K. pneumoniae ATCC 13883 (ATCC 13883), 8 µg/mL (≈ 7.24 µM); against K. pneumoniae F144 (K. pneumoniae F144), 16(−4) μg/ml; in test [5] (ATCC 17444) it was 8 µg/mL (≈ 7.24 µM).

A word on the IC50: it is the concentration needed to halve the response being measured. Higher therefore signals lower potency. By MIC is commonly meant the smallest concentration in the dilution series that meets the test's criterion for growth inhibition. High values mean weaker potency, low ones greater potency.
